Measured values as given in patent publication US8822449B2, “Substituted aminoindanes and analogs thereof, and the pharmaceutical use thereof” (Sanofi, priority 2008, dated 2014).

molecular target: T1, sodium-proton exchanger of subtype 3 (NHE3) (Homo sapiens, UniProt P48764); experiment: Recovery of intracellular pH (pHi) after acidification in LAP1 cells stably expressing NHE3 (BCECF fluorescence, FLIPR); type: cell-based; settings: Activity range (inhibitory effect on NHE3), LAP1 cells stably expressing NHE3; pH recovery after acidification; range 1 is % inhibition at 10 μM
T1 construct: expressed in transfected cells
T1 sequence (P48764 26-834): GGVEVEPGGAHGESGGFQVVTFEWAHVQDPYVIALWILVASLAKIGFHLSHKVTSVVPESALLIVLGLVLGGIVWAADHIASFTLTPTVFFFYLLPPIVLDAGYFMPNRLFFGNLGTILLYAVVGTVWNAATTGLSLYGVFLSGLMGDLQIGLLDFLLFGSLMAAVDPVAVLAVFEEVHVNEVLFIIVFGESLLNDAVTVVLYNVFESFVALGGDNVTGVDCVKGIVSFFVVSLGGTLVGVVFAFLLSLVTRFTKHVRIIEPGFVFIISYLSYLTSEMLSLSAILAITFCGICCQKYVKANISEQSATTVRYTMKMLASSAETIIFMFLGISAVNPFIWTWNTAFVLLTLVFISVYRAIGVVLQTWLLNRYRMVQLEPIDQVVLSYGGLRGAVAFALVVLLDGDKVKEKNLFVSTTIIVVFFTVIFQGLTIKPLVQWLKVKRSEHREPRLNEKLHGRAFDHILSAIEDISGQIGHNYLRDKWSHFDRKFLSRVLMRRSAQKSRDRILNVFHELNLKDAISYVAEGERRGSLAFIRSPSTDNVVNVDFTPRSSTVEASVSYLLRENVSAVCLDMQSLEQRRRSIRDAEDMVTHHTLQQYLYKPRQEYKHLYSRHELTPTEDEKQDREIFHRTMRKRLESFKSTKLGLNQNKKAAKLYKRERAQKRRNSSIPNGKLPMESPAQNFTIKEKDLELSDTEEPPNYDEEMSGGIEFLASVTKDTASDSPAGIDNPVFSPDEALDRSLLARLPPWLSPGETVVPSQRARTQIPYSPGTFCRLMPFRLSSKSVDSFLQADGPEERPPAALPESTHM

Compound	IC50
Clc1cc(Cl)c2c(c1)[C@H](Oc1ccc(-n3cncn3)cc1)[C@@H](N1C[C@H]3CC[C@@H](C1)N3)C2 [Example 2, 3-[trans-(1S,2S)-4,6-dichloro-1-(4-[1,2,4]triazol-1-ylphenoxy)indan-2-yl]-3,8-diazabicyclo[3.2.1]octane]	1000 to 10000 nM

same assay, conditions: LAP1 cells stably expressing NHE3; pH recovery after acidification; range 1 is % inhibition at 10 μM; read-out: Activity range (inhibitory effect on NHE3)

Compound	IC50	inhibition at 10 µM
Cc1nnc(C)n1-c1ccc(F)c(O[C@H]2c3cc(Cl)cc(Cl)c3C[C@@H]2N2CC[C@@H](O)C2)c1 [Example 114, (R)-1-{(1S,2S)-4,6-dichloro-1-[5-(3,5-dimethyl-[1,2,4]triazol-4-yl)-2-fluorophenoxy]indan-2-yl}pyrrolidin-3-ol]	1000 to 10000 nM	
Cc1nnc(C)n1-c1ccc(O[C@H]2c3cc(Cl)cc(Cl)c3C[C@@H]2N2CC[C@@H](O)C2)c(Cl)c1 [Example 122, (R)-1-{trans-(1S,2S)-4,6-dichloro-1-[2-chloro-4-(3,5-dimethyl-[1,2,4]triazol-4-yl)phenoxy]indan-2-yl}pyrrolidin-3-ol]	< 1000 nM	
COC(=O)c1ccc(O[C@H]2c3ccccc3CC[C@@H]2N2CCC[C@@H](N)C2)c(Cl)c1 (racemic) [Example 513, 4-[rac-trans-(1,2)-2-((R)-3-aminopiperidin-1-yl)-1,2,3,4-tetrahydronaphthalen-1-yloxy]-3-chlorobenzoic acid methyl ester]		20 to 50%
N[C@@H]1CCCN([C@H]2CCc3ccccc3[C@@H]2Oc2ccc(N3C(=O)CCC3=O)cc2)C1 (racemic) [Example 326, 1-{4-[rac-trans-(1,2)-2-((R)-3-aminopiperidin-1-yl)-1,2,3,4-tetrahydronaphthalen-1-yloxy]phenyl}pyrrolidine-2,5-dione]	1000 to 10000 nM	
Cc1nnc(C(C)C)n1-c1ccc(O[C@H]2c3cc(Cl)cc(F)c3C[C@@H]2N2CC[C@@H](O)C2)cc1 [Example 721, (R)-1-{trans-(1S,2S)-6-Chloro-4-fluoro-1-[4-(3-isopropyl-5-methyl-[1,2,4]triazol-4-yl)-phenoxy]-indan-2-yl}-pyrrolidin-3-ol]	1000 to 10000 nM	
CN(c1ccc(F)c(O[C@H]2c3cc(Cl)cc(F)c3C[C@@H]2N2CC[C@@H](O)C2)c1)S(C)(=O)=O [Example 673, N-{3-[(1S,2S)-6-chloro-4-fluoro-2-((R)-3-hydroxypyrrolidin-1-yl)indan-1-yloxy]-4-fluorophenyl}-N-methyl-methanesulfonamide]	1000 to 10000 nM	
N[C@@H]1CCCN([C@H]2CCc3ccccc3[C@@H]2Oc2ccc(F)c(F)c2)C1 (racemic) [Example 51, (R)-1-[rac-trans-(1,2)-1-(3,4-difluorophenoxy)-1,2,3,4-tetrahydronaphthalen-2-yl]piperidin-3-ylamine]		20 to 50%
CS(=O)(=O)c1ccc(O[C@H]2c3cc(Cl)cc(Cl)c3C[C@@H]2N2CCC[C@@H](N)C2)cc1 [Example 102, (R)-1-[trans-(1S,2S)-4,6-dichloro-1-(4-methanesulfonylphenoxy)indan-2-yl]piperidin-3-ylamine]	< 1000 nM	
Brc1ccc(O[C@@H]2c3ccccc3C[C@H]2N2C[C@H]3CNC[C@H]3C2)c(-c2cc[nH]n2)c1 (racemic) [Example 20, 2-{rac-trans-(1,2)-1-[4-bromo-2-(1H-pyrazol-3-yl)phenoxy]indan-2-yl}octahydropyrrolo[3,4-c]pyrrole]	1000 to 10000 nM	
Cc1nnc(C)n1-c1ccc(O[C@H]2c3ccccc3C(C)(C)[C@@H]2N2CCCC2)cc1 (racemic) [Example 497, 4-[4-(rac-trans-(1,2)-3,3-dimethyl-2-pyrrolidin-1-ylindan-1-yloxy)phenyl]-3,5-dimethyl-4H-[1,2,4]triazole]		20 to 50%
Cc1cc2c(O[C@H]3c4ccccc4CC[C@@H]3N3CCOCC3)cccc2[nH]1 (racemic) [Example 399, 2-methyl-4-(rac-trans-(1,2)-2-morpholin-4-yl-1,2,3,4-tetrahydronaphthalen-1-yloxy)-1H-indole]		20 to 50%
NCC1CCN([C@@H]2Cc3ccccc3[C@H]2Oc2cccc(NC(N)=O)c2)C1 (mixture of isomers) [Example 233, {3-[rac-trans-(1,2)-2-(3-aminomethylpyrrolidin-1-yl)indan-1-yloxy]phenyl}urea]	1000 to 10000 nM	
NS(=O)(=O)c1ccc(O[C@H]2c3cc(Cl)cc(Cl)c3C[C@@H]2N2CC[C@@H](O)C2)c(F)c1 [Example 741, 4-[trans-(1S,2S)-4,6-Dichloro-2-((R)-3-hydroxy-pyrrolidin-1-yl)-indan-1-yloxy]-3-fluoro-benzenesulfonamide]	< 1000 nM	
CS(=O)(=O)c1ccc(O[C@H]2c3cc(Cl)cc(F)c3C[C@@H]2N2CCCC2)cc1 (racemic) [Example 293, 1-[rac-trans-(1,2)-6-chloro-4-fluoro-1-(4-methanesulfonylphenoxy)indan-2-yl]pyrrolidine]	1000 to 10000 nM	
N[C@@H]1CCCN([C@H]2CCc3ccccc3[C@@H]2Oc2cccc(-n3cnnn3)c2)C1 (racemic) [Example 60, (R)-1-[rac-trans-(1,2)-1-(3-tetrazol-1-ylphenoxy)-1,2,3,4-tetrahydronaphthalen-2-yl]piperidin-3-ylamine]	1000 to 10000 nM	
COc1cccc(F)c1O[C@@H]1c2cc(Cl)cc(Cl)c2C[C@H]1N1CCC[C@@H](N)C1 [Example 94, (R)-1-[trans-(1R,2R)-4,6-dichloro-1-(2-fluoro-6-methoxyphenoxy)indan-2-yl]piperidin-3-ylamine]		20 to 50%
N[C@H]1CCCN([C@H]2CCc3ccccc3[C@@H]2Oc2ccccc2Br)C1 (racemic) [Example 151, (S)-1-[rac-trans-(1,2)-1-(2-bromophenoxy)-1,2,3,4-tetrahydronaphthalen-2-yl]piperidin-3-ylamine]		20 to 50%
CS(=O)(=O)c1nccn1-c1ccc(O[C@H]2c3cc(Cl)cc(F)c3C[C@@H]2NC2CCCC2)c(F)c1 [Example 754, {trans-(1S,2S)-6-Chloro-4-fluoro-1-[2-fluoro-4-(2-methanesulfonyl-imidazol-1-yl)-phenoxy]-indan-2-yl}-cyclopentyl-amine]	< 1000 nM	
COC(=O)c1ccc(O[C@H]2c3ccccc3C[C@@H]2N2CCCC2)cc1 (racemic) [Example 467, 4-(rac-trans-(1,2)-2-pyrrolidin-1-ylindan-1-yloxy)benzoic acid methyl ester]	1000 to 10000 nM	
O=[N+]([O-])c1ccc(O[C@@H]2c3ccccc3C[C@@H]2N2CCOCC2)c(Cl)c1 (racemic) [Example 478, 4-[(1R,2S)-1-(2-chloro-4-nitrophenoxy)indan-2-yl]morpholine]		20 to 50%
N[C@@H]1CCCN([C@H]2CCc3ccccc3[C@@H]2Oc2ccc(F)c(C(F)(F)F)c2)C1 (racemic) [Example 69, (R)-1-[rac-trans-(1,2)-1-(4-fluoro-3-trifluoromethylphenoxy)-1,2,3,4-tetrahydronaphthalen-2-yl]piperidin-3-ylamine]		20 to 50%
CC(=O)Nc1cccc(O[C@H]2c3cc(Cl)cc(Cl)c3C[C@@H]2N2CCC[C@@H](N(C)C)C2)c1 [Example 694, N-{3-[trans-(1S,2S)-4,6-dichloro-2-((R)-3-dimethylaminopiperidin-1-yl)indan-1-yloxy]phenyl}acetamide]	< 1000 nM	
CS(=O)(=O)c1ccc(O[C@H]2c3cc(Cl)cc(Cl)c3C[C@@H]2N2CC(O)C2)cc1 [Example 307, 1-[trans-(1S,2S)-4,6-dichloro-1-(4-methanesulfonylphenoxy)indan-2-yl]azetidin-3-ol]	1000 to 10000 nM	
N[C@H]1CCCN([C@H]2CCc3ccccc3[C@@H]2Oc2cc(F)cc(Cl)c2)C1 (racemic) [Example 162, (S)-1-[rac-trans-(1,2)-1-(3-chloro-5-fluorophenoxy)-1,2,3,4-tetrahydronaphthalen-2-yl]piperidin-3-ylamine]		20 to 50%
Cc1nnc(C)n1-c1ccc(O[C@@H]2c3ccccc3C[C@@]2(C)N2CCCC2)c(F)c1 (racemic) [Example 494, 4-[3-fluoro-4-(-2-methyl-2-pyrrolidin-1-ylindan-1-yloxy)phenyl]-3,5-dimethyl-4H-[1,2,4]triazole]	1000 to 10000 nM	
CN(C)C[C@@H]1Cc2ccccc2[C@H]1Oc1ccc(S(C)(=O)=O)cc1 (racemic) [Example 244]		20 to 50%
NCC1CCN([C@@H]2Cc3ccccc3[C@H]2Oc2cccc(N3CCNCC3)c2)C1 (mixture of isomers) [Example 617, C-{1-[rac-trans-(1,2)-1-(3-piperazin-1-ylphenoxy)indan-2-yl]pyrrolidin-3-yl}methylamine]	1000 to 10000 nM	
CS(=O)(=O)c1ccc(O[C@H]2c3cc(Cl)cc(Cl)c3C[C@@H]2N2CCC3(CCNC3)C2)cc1 (mixture of isomers) [Example 378, 2-[trans-(1S,2S)-4,6-dichloro-1-(4-methanesulfonylphenoxy)indan-2-yl]-2,7-diaza-spiro[4.4]nonane]	< 1000 nM	
NC(=O)c1cccc(O[C@@H]2c3ccccc3C[C@H]2N2CCC(N)C2)c1 (mixture of isomers) [Example 415, 3-[rac-trans-(1,2)-2-(3-aminopyrrolidin-1-yl)indan-1-yloxy]benzamide]	1000 to 10000 nM	
